Data on two compounds can be found in patent US8685953B2, “Linear and cyclic guanidine derivatives, method of preparation and uses thereof” (Universita Degli Studi Di Siena, priority 2008, dated 2014).

One assay has as its system C. krusei strains. The assay can be described thus: MIC determination, summary over C. krusei strains. In kind it is cell-based. The settings on record: Pichia kudriavzevii; text summary over C. krusei strains; read-out: activity toward C. krusei strains (MIC). The procedure: (§1) Determination of MICs by AFST-EUCAST Standard Methodology
(§2) Assay medium. The assay medium was RPMI […] without NaHCO3 and with L-glutamine (Sigma Aldrich, Italy), buffered at pH 7.0 with 0.165 M morpholinepropanesulphonic acid (Sigma Aldrich, Italy) and supplemented with 2% (w/v) glucose. The medium, prepared as double-strength solution, was sterilized by filtration and diluted 1:2 (v/v) with the fungal inoculum prepared in sterile distilled water.
(§3) The yeast isolates were grown on Sabouraud dextrose agar (Oxoid, Madrid, Spain) for 48 h at 37° C. before testing. Suspensions were prepared by combining five distinct colonies of each culture of >1 mm diameter. […]
(§4) Sterile plastic micro titration plates containing flat-bottomed wells were used. […] The minimal inhibitory concentrations (MICs) were determined at 24 h both visually and spectrophotometrically.
(§5) By visual endpoint determination, MICs were determined according to a S-1-R scale, with S (susceptible) indicating an optical clear culture, I (intermediate susceptibility) indicating a slightly hazy culture, and R (resistant) indicating no reduction in turbidity. […]
(§6) Microtitration plates were stirred using a microtitration plate shaker before reading to ensure uniform turbidity. MICs were obtained by measuring the absorbance at 450 nm with a microtitration plate reader. The value of the blank was subtracted from reading of the rest of the wells. […]

Another assay concerns C. parapsilosis 81E. The assay can be described thus: MIC determination by AFST-EUCAST standard methodology. In kind it is cell-based. The settings on record: Lodderomyces parapsilosis, 24 h, visually and spectrophotometrically, read-out: Antifungal activity, expressed as MIC50. Here is the method:
as §1, §2
(§7) The yeast isolates were grown on Sabouraud dextrose agar (Oxoid, Madrid, Spain) for 48 h at 37° C. before testing. Suspensions were prepared by combining five distinct colonies of each culture of >1 mm diameter. A spectrophotometric procedure for inoculum preparation was used. The final inoculum suspension, prepared in sterile distilled water, contained between 0.5·10^5 and 2.5·10^5 cfu/mL.
(§8) Stock solutions of test compounds were prepared in 100% dimethyl sulfoxide. Stock solutions were prepared as 100× concentration relative to the highest concentration in the antifungal activity test, and frozen at −70° C. until used.
(§9) Sterile plastic micro titration plates containing flat-bottomed wells were used. The plates contained serial dilution of the antifungal agents with a volume of assay medium of 100 μL/well. Two drug-free medium wells were used as sterility and growth controls. The trays were inoculated with 100 μL/well of the final inoculum, with the exception of sterility control wells. The range of concentrations tested for each drug was 1.25-80 μM. The microtitration plates were incubated at 37° C. for 24 h. The minimal inhibitory concentrations (MICs) were determined at 24 h both visually and spectrophotometrically.
(§10) By visual endpoint determination, MICs were determined according to a S-1-R scale, with S (susceptible) indicating an optical clear culture, I (intermediate susceptibility) indicating a slightly hazy culture, and R (resistant) indicating no reduction in turbidity. The MIC50 was defined as the lowest concentration of a drug which correspond to a S culture.
(§11) Microtitration plates were stirred using a microtitration plate shaker before reading to ensure uniform turbidity. MICs were obtained by measuring the absorbance at 450 nm with a microtitration plate reader. The value of the blank was subtracted from reading of the rest of the wells. Two endpoints were defined for each antifungal agent tested, with MIC80 indicating the lowest drug concentration resulting in a reduction of growth of 80% or more (determined spectrophotometrically) compared with the growth of the control, and MIC50 indicating the lowest drug concentration resulting in a reduction in growth of 50% (determined spectrophotometrically) compared with the growth of the control. The MIC50 was also defined as the spectrophotometric endpoint.

Assay [1] concerns C. parapsilosis ATCC 34136. The description is as above. In kind it is cell-based. The settings on record: Lodderomyces parapsilosis, ATCC34136, 24 h, visually and spectrophotometrically, read-out: Antifungal activity, expressed as MIC50. The procedure:
as §1, §2, §7, §8, §9, §10, §11

For a further assay, the system named is C. krusei ATCC 14243. The assay is described as above. In kind it is cell-based. The settings on record: Pichia kudriavzevii, ATCC14243, 24 h, visually and spectrophotometrically, read-out: Antifungal activity, expressed as MIC50. Here is the method: as §1, §2, §7, §8, §9, §10, §11
In a further assay the test system is C. parapsilosis 64E. Described as above. In kind it is cell-based. Particulars: Lodderomyces parapsilosis, 24 h, visually and spectrophotometrically, read-out: Antifungal activity, expressed as MIC50. Here is the method:
as §1, §2, §7, §8, §9, §10, §11

The subject of another assay is C. glabrata 70E. The description is as above. In kind it is cell-based. Particulars: Nakaseomyces glabratus; for MIC50: C. glabrata 70E, 24 h, visually and spectrophotometrically, read-out: Antifungal activity, expressed as MIC50. The procedure:
as §1, §2, §7, §8, §9, §10, §11

The test system of a further assay is C. tropicalis 86E. The description is as above. In kind it is cell-based. Particulars: Candida tropicalis, 24 h, visually and spectrophotometrically, read-out: Antifungal activity, expressed as MIC50. Here is the method: as §1, §2, §7, §8, §9, §10, §11
The next assay concerns C. krusei 193T. Described as above. In kind it is cell-based. The settings on record: Pichia kudriavzevii, 24 h, visually and spectrophotometrically, read-out: Antifungal activity, expressed as MIC50. The procedure:
as §1, §2, §7, §8, §9, §10, §11

In another assay the test system is C. albicans. The assay can be described thus: MIC determination, summary over C. albicans strains. In kind it is cell-based. The settings on record: Candida albicans; text summary over all C. albicans strains; read-out: activity toward C. albicans (MIC). The procedure: as §1, §2, §3, §4, §5, §6
The test system of a further assay is C. albicans 15T. The assay can be described thus: MIC determination by AFST-EUCAST standard methodology. In kind it is cell-based, Candida albicans. Particulars: Candida albicans, 24 h, visually and spectrophotometrically, read-out: Antifungal activity, expressed as MIC50. Here is the method: as §1, §2, §7, §8, §9, §10, §11
The test system of the next assay is C. albicans 53T. The description is as above. In kind it is cell-based, Candida albicans. Particulars: Candida albicans, 24 h, visually and spectrophotometrically, read-out: Antifungal activity, expressed as MIC50. The procedure: as §1, §2, §7, §8, §9, §10, §11
The test system of the next assay is C. albicans 4T. Described as above. The settings on record: Candida albicans, 24 h, visually and spectrophotometrically, read-out: Antifungal activity, expressed as MIC50. In kind it is cell-based, Candida albicans. The procedure:
as §1, §2, §7, §8, §9, §10, §11

Another assay deals with C. albicans ATCC 60193. Described as above. In kind it is cell-based, Candida albicans. Particulars: Candida albicans, ATCC60193, 24 h, visually and spectrophotometrically, read-out: Antifungal activity, expressed as MIC50. Here is the method: as §1, §2, §7, §8, §9, §10, §11
For another assay, the system named is C. parapsilosis. The assay can be described thus: MIC determination, summary over C. parapsilosis. The settings on record: Lodderomyces parapsilosis, stated jointly with C. glabrata; read-out: activity toward C. parapsilosis (MIC). In kind it is cell-based. Here is the method: as §1, §2, §3, §4, §5, §6

Where a name gives a salt, the structure may show the parent alone. Bounds are passed on as bounds.

As usually defined, the MIC is the lowest concentration found to suppress growth. By MIC50 is commonly meant the lowest concentration that inhibits either 50% of growth or 50% of the strains tested, depending on the study. Consider `N=C(NCCCCCCCCN1CCCCCCCCNC(=N)NC1=O)NCC1CC1` [Compound 15c, 1-[cyclopropylmethyl]-3-[8-(4-imino-2-oxo-1,3,5-triazacyclotridec-1-yl)octyl]guanidine tri trifluoroacetate], for which the MIC with C. krusei strains is 10 µM; in the assay with C. albicans, 2.5 µM. In addition, the MIC50 is 40 µM in the assay on C. parapsilosis 81E; > 80 µM in assay [1]; 10 µM in the assay with C. krusei ATCC 14243; 20 µM in the assay on C. parapsilosis 64E; 40 µM in the assay with C. glabrata 70E; 1.25 µM in the assay on C. tropicalis 86E. Moreover, the MIC50 in the assay on C. krusei 193T worked out at 10 µM; with C. albicans 15T, 2.5 µM; with C. albicans 53T it was 2.5 µM; with C. albicans 4T it was 2.5 µM; in the assay on C. albicans ATCC 60193, 2.5 µM.

With `CC(C)=CCNC(=N)NCCCCCCCCN1CCCCCCCCNC(=N)NC1=O` [Compound 15e, 1-[γ,γ-dimethylallyl]-3-[8-(4-imino-2-oxo-1,3,5-triazacyclotridec-1-yl)octyl]guanidine tri trifluoroacetate], the MIC in the assay on C. parapsilosis lay in the range of 40 to 80 µM; with C. glabrata 70E (70E, stated jointly with C. parapsilosis, read-out: activity toward C. glabrata (MIC)) it was 40 to 80 µM; in the assay on C. albicans, 20 to 40 µM. Moreover, the MIC50 in the assay on C. parapsilosis 81E is 40 µM; in assay [1], > 80 µM; with C. krusei ATCC 14243, 10 µM; in the assay with C. parapsilosis 64E it was > 80 µM; with C. glabrata 70E it was 80 µM; in the assay on C. tropicalis 86E, 20 µM. Also, the MIC50 was 20 µM in the assay with C. krusei 193T; 20 µM with C. albicans 15T; 20 µM with C. albicans 53T; 20 µM in the assay on C. albicans 4T; 40 µM in the assay with C. albicans ATCC 60193.
